≈ marks a conversion by molar mass, not a printed value.
Test system: Mus musculus
Test: Tested for the antimicrobial activity against Streptococcus pyogenes (ST139) in mice, subcutaneously
Assay type: functional
Conditions: sc

Structure (SMILES)	ED50
CC1(C)S[C@@H]2[C@H](NC(=O)[C@H](N)c3ccc(O)cc3)C(=O)N2[C@H]1C(=O)O [AMOXICILLIN]	0.063 mg/kg
CC1(C)SC2C(NC(=O)[C@H](N)c3ccc4c(c3)CCO4)C(=O)N2C1C(=O)O (stereo partly drawn)	0.053 mg/kg

Test system: Streptococcus pyogenes
Test: Tested for inhibition of visible growth of Streptococcus pyogenes
Assay type: functional
Conditions: not given

MIC	Structure (SMILES)
≤ 0.03 µg/mL	CC1(C)S[C@@H]2[C@H](NC(=O)[C@H](N)c3ccc(O)cc3)C(=O)N2[C@H]1C(=O)O [AMOXICILLIN]
≤ 0.03 µg/mL	CC1(C)SC2C(NC(=O)[C@H](N)c3ccc4c(c3)CCO4)C(=O)N2C1C(=O)O (stereo partly drawn)

Species on record: Mus musculus
Test: Tested for the antimicrobial activity against Streptococcus pyogenes (St141) in mice, perorally
Assay type: functional
Conditions: po

Structure (SMILES)	ED50
CC1(C)S[C@@H]2[C@H](NC(=O)[C@H](N)c3ccc(O)cc3)C(=O)N2[C@H]1C(=O)O [AMOXICILLIN]	0.08 mg/kg
CC1(C)SC2C(NC(=O)[C@H](N)c3ccc4c(c3)CCO4)C(=O)N2C1C(=O)O (stereo partly drawn)	0.11 mg/kg

Test system: Klebsiella pneumoniae
Test: Tested for inhibition of visible growth of Klebsiella pneumoniae
Assay type: functional
Conditions: not given

MIC	Structure (SMILES)
0.8 µg/mL (≈ 2.19 µM)	CC1(C)S[C@@H]2[C@H](NC(=O)[C@H](N)c3ccc(O)cc3)C(=O)N2[C@H]1C(=O)O [AMOXICILLIN]
6.2 µg/mL (≈ 15.8 µM)	CC1(C)SC2C(NC(=O)[C@H](N)c3ccc4c(c3)CCO4)C(=O)N2C1C(=O)O (stereo partly drawn)

Test system: Mus musculus
Test: Tested for the antimicrobial activity against Streptococcus pneumoniae (D137) in mice, subcutaneously
Assay type: functional
Conditions: sc

Structure (SMILES)	ED50
CC1(C)S[C@@H]2[C@H](NC(=O)[C@H](N)c3ccc(O)cc3)C(=O)N2[C@H]1C(=O)O [AMOXICILLIN]	0.14 mg/kg
CC1(C)SC2C(NC(=O)[C@H](N)c3ccc4c(c3)CCO4)C(=O)N2C1C(=O)O (stereo partly drawn)	0.14 mg/kg

Test system: Staphylococcus aureus
Test: Tested for inhibition of visible growth of Staphylococcus aureus
Assay type: functional
Conditions: not given

MIC	Structure (SMILES)
100 µg/mL (≈ 274 µM)	CC1(C)S[C@@H]2[C@H](NC(=O)[C@H](N)c3ccc(O)cc3)C(=O)N2[C@H]1C(=O)O [AMOXICILLIN]
100 µg/mL (≈ 255 µM)	CC1(C)SC2C(NC(=O)[C@H](N)c3ccc4c(c3)CCO4)C(=O)N2C1C(=O)O (stereo partly drawn)

Test system: Mus musculus
Test: Tested for the antimicrobial activity against Streptococcus pneumoniae (D815) in mice, subcutaneously
Assay type: functional
Conditions: sc

Structure (SMILES)	ED50
CC1(C)S[C@@H]2[C@H](NC(=O)[C@H](N)c3ccc(O)cc3)C(=O)N2[C@H]1C(=O)O [AMOXICILLIN]	0.05 mg/kg
CC1(C)SC2C(NC(=O)[C@H](N)c3ccc4c(c3)CCO4)C(=O)N2C1C(=O)O (stereo partly drawn)	0.078 mg/kg

Species on record: Mus musculus
Test: Tested for the antimicrobial activity against Streptococcus pyogenes (ST139) in mice, perorally
Assay type: functional
Conditions: po

Structure (SMILES)	ED50
CC1(C)S[C@@H]2[C@H](NC(=O)[C@H](N)c3ccc(O)cc3)C(=O)N2[C@H]1C(=O)O [AMOXICILLIN]	0.073 mg/kg
CC1(C)SC2C(NC(=O)[C@H](N)c3ccc4c(c3)CCO4)C(=O)N2C1C(=O)O (stereo partly drawn)	0.084 mg/kg

Test system: Mus musculus
Test: Tested for the antimicrobial activity against Staphylococcus aureus (M202) in mice, subcutaneously
Assay type: functional
Conditions: sc

Structure (SMILES)	ED50
CC1(C)S[C@@H]2[C@H](NC(=O)[C@H](N)c3ccc(O)cc3)C(=O)N2[C@H]1C(=O)O [AMOXICILLIN]	0.62 mg/kg
CC1(C)SC2C(NC(=O)[C@H](N)c3ccc4c(c3)CCO4)C(=O)N2C1C(=O)O (stereo partly drawn)	0.89 mg/kg

Test system: Proteus mirabilis
Test: Tested for inhibition of visible growth of Proteus mirabilis
Assay type: functional
Conditions: not given

MIC	Structure (SMILES)
0.4 µg/mL (≈ 1.09 µM)	CC1(C)S[C@@H]2[C@H](NC(=O)[C@H](N)c3ccc(O)cc3)C(=O)N2[C@H]1C(=O)O [AMOXICILLIN]
12.5 µg/mL (≈ 31.9 µM)	CC1(C)SC2C(NC(=O)[C@H](N)c3ccc4c(c3)CCO4)C(=O)N2C1C(=O)O (stereo partly drawn)

Test system: Enterobacter cloacae
Test: Tested for inhibition of visible growth of Enterobacter cloacae
Assay type: functional
Conditions: not given

MIC	Structure (SMILES)
> 100 µg/mL	CC1(C)S[C@@H]2[C@H](NC(=O)[C@H](N)c3ccc(O)cc3)C(=O)N2[C@H]1C(=O)O [AMOXICILLIN]
> 100 µg/mL	CC1(C)SC2C(NC(=O)[C@H](N)c3ccc4c(c3)CCO4)C(=O)N2C1C(=O)O (stereo partly drawn)

Species on record: Mus musculus
Test: Tested for the antimicrobial activity against Staphylococcus aureus (M240) in mice, perorally
Assay type: functional
Conditions: po

Structure (SMILES)	ED50
CC1(C)S[C@@H]2[C@H](NC(=O)[C@H](N)c3ccc(O)cc3)C(=O)N2[C@H]1C(=O)O [AMOXICILLIN]	0.31 mg/kg
CC1(C)SC2C(NC(=O)[C@H](N)c3ccc4c(c3)CCO4)C(=O)N2C1C(=O)O (stereo partly drawn)	0.4 mg/kg

Test system: Klebsiella aerogenes
Test: Tested for inhibition of visible growth of Enterobacter aerogenes
Assay type: functional
Conditions: not given

MIC	Structure (SMILES)
> 100 µg/mL	CC1(C)S[C@@H]2[C@H](NC(=O)[C@H](N)c3ccc(O)cc3)C(=O)N2[C@H]1C(=O)O [AMOXICILLIN]
> 100 µg/mL	CC1(C)SC2C(NC(=O)[C@H](N)c3ccc4c(c3)CCO4)C(=O)N2C1C(=O)O (stereo partly drawn)

Species on record: Mus musculus
Test: Tested for the antimicrobial activity against Streptococcus pneumoniae (D815) in mice, perorally
Assay type: functional
Conditions: po

Structure (SMILES)	ED50
CC1(C)S[C@@H]2[C@H](NC(=O)[C@H](N)c3ccc(O)cc3)C(=O)N2[C@H]1C(=O)O [AMOXICILLIN]	0.13 mg/kg
CC1(C)SC2C(NC(=O)[C@H](N)c3ccc4c(c3)CCO4)C(=O)N2C1C(=O)O (stereo partly drawn)	0.16 mg/kg

Test system: not listed separately
Test: Tested for inhibition of visible growth of Salmonella schottmuelleri
Assay type: functional
Conditions: not given

MIC	Structure (SMILES)
0.4 µg/mL (≈ 1.09 µM)	CC1(C)S[C@@H]2[C@H](NC(=O)[C@H](N)c3ccc(O)cc3)C(=O)N2[C@H]1C(=O)O [AMOXICILLIN]
1.6 µg/mL (≈ 4.09 µM)	CC1(C)SC2C(NC(=O)[C@H](N)c3ccc4c(c3)CCO4)C(=O)N2C1C(=O)O (stereo partly drawn)

Test system: Enterococcus faecalis
Test: Tested for inhibition of visible growth of Streptococcus faecalis
Assay type: functional
Conditions: not given

MIC	Structure (SMILES)
1.6 µg/mL (≈ 4.38 µM)	CC1(C)S[C@@H]2[C@H](NC(=O)[C@H](N)c3ccc(O)cc3)C(=O)N2[C@H]1C(=O)O [AMOXICILLIN]
3.1 µg/mL (≈ 7.92 µM)	CC1(C)SC2C(NC(=O)[C@H](N)c3ccc4c(c3)CCO4)C(=O)N2C1C(=O)O (stereo partly drawn)

Test system: Mus musculus
Test: Tested for the antimicrobial activity against Streptococcus pyogenes (St141) in mice, subcutaneously
Assay type: functional
Conditions: sc

Structure (SMILES)	ED50
CC1(C)S[C@@H]2[C@H](NC(=O)[C@H](N)c3ccc(O)cc3)C(=O)N2[C@H]1C(=O)O [AMOXICILLIN]	0.06 mg/kg
CC1(C)SC2C(NC(=O)[C@H](N)c3ccc4c(c3)CCO4)C(=O)N2C1C(=O)O (stereo partly drawn)	0.07 mg/kg

Test system: Escherichia coli
Test: Tested for inhibition of visible growth of Escherichia coli
Assay type: functional
Conditions: not given

MIC	Structure (SMILES)
6.2 µg/mL (≈ 17 µM)	CC1(C)S[C@@H]2[C@H](NC(=O)[C@H](N)c3ccc(O)cc3)C(=O)N2[C@H]1C(=O)O [AMOXICILLIN]
25 µg/mL (≈ 63.9 µM)	CC1(C)SC2C(NC(=O)[C@H](N)c3ccc4c(c3)CCO4)C(=O)N2C1C(=O)O (stereo partly drawn)

Test system: Pseudomonas aeruginosa
Test: Tested for inhibition of visible growth of Pseudomonas aeruginosa
Assay type: functional
Conditions: not given

MIC	Structure (SMILES)
> 100 µg/mL	CC1(C)S[C@@H]2[C@H](NC(=O)[C@H](N)c3ccc(O)cc3)C(=O)N2[C@H]1C(=O)O [AMOXICILLIN]
> 100 µg/mL	CC1(C)SC2C(NC(=O)[C@H](N)c3ccc4c(c3)CCO4)C(=O)N2C1C(=O)O (stereo partly drawn)

Test system: Streptococcus pneumoniae
Test: Tested for inhibition of visible growth of Streptococcus pneumoniae
Assay type: functional
Conditions: not given

MIC	Structure (SMILES)
≤ 0.03 µg/mL	CC1(C)S[C@@H]2[C@H](NC(=O)[C@H](N)c3ccc(O)cc3)C(=O)N2[C@H]1C(=O)O [AMOXICILLIN]
≤ 0.03 µg/mL	CC1(C)SC2C(NC(=O)[C@H](N)c3ccc4c(c3)CCO4)C(=O)N2C1C(=O)O (stereo partly drawn)

Test system: Staphylococcus aureus
Test: Tested for inhibition of visible growth of Staphylococcus aureus, benzyl-penicillin sensitive
Assay type: functional
Conditions: not given

MIC	Structure (SMILES)
0.1 µg/mL (≈ 0.274 µM)	CC1(C)S[C@@H]2[C@H](NC(=O)[C@H](N)c3ccc(O)cc3)C(=O)N2[C@H]1C(=O)O [AMOXICILLIN]
0.05 µg/mL (≈ 0.128 µM)	CC1(C)SC2C(NC(=O)[C@H](N)c3ccc4c(c3)CCO4)C(=O)N2C1C(=O)O (stereo partly drawn)

Test system: Mus musculus
Test: Tested for the antimicrobial activity against Staphylococcus aureus (M240) in mice, subcutaneously
Assay type: functional
Conditions: sc

Structure (SMILES)	ED50
CC1(C)S[C@@H]2[C@H](NC(=O)[C@H](N)c3ccc(O)cc3)C(=O)N2[C@H]1C(=O)O [AMOXICILLIN]	0.074 mg/kg
CC1(C)SC2C(NC(=O)[C@H](N)c3ccc4c(c3)CCO4)C(=O)N2C1C(=O)O (stereo partly drawn)	0.063 mg/kg

Species on record: Mus musculus
Test: Tested for the antimicrobial activity against Streptococcus pneumoniae (D137) in mice, perorally
Assay type: functional
Conditions: po

Structure (SMILES)	ED50
CC1(C)S[C@@H]2[C@H](NC(=O)[C@H](N)c3ccc(O)cc3)C(=O)N2[C@H]1C(=O)O [AMOXICILLIN]	0.25 mg/kg
CC1(C)SC2C(NC(=O)[C@H](N)c3ccc4c(c3)CCO4)C(=O)N2C1C(=O)O (stereo partly drawn)	0.22 mg/kg

Species on record: Mus musculus
Test: Tested for the antimicrobial activity against Staphylococcus aureus (M202) in mice, perorally
Assay type: functional
Conditions: po

Structure (SMILES)	ED50
CC1(C)S[C@@H]2[C@H](NC(=O)[C@H](N)c3ccc(O)cc3)C(=O)N2[C@H]1C(=O)O [AMOXICILLIN]	0.62 mg/kg
CC1(C)SC2C(NC(=O)[C@H](N)c3ccc4c(c3)CCO4)C(=O)N2C1C(=O)O (stereo partly drawn)	0.41 mg/kg
